The target of assay [1] is T1, BcGalB (Heyndrickxia coagulans, UniProt G2TH90).
T1 construct: recombinant in E. coli Rosetta(DE3) pLysS, pET28b, C-terminal His-tag, ~75 kDa monomer, hexamer in solution
Put plainly: release of ortho-nitrophenol at […] nm, non-linear regression. The settings on record: 100 mM sodium citrate pH 5.0, 60 °C. The class given is biochemical.

For assay [2], the target named is T1, BcGalB. Put plainly: inhibition of ONP-β-gal hydrolysis. In kind it is biochemical. The settings on record: 0-100 mM sugar, 5 min preincubation, standard assay 10 mM ONP-β-gal, 100 mM sodium citrate pH 5.0, 60 °C.
In assay [3] the target is B. coagulans MA-13 β-galactosidase expressed in E. coli (BcGalB) (Bacillus coagulans MA-13). In words: SEC-MALS; S200 16/60 column with Mini DAWN Treos light scattering and QELS; 1 mg protein at 1 mg/ml; 0.5 ml/min; 100 mM sodium phosphate pH 8.0, 1 mM DTT; data not shown. On the technique in general: In gel filtration, larger molecules generally elute earlier.

Consider `O=[N+]([O-])c1ccccc1O[C@@H]1O[C@H](CO)[C@H](O)[C@H](O)[C@H]1O` [ONP-β-gal], for which, on BcGalB [1], the Michaelis constant (Km) (in general, the concentration of substrate that gives half-maximal velocity) came out at 723 µM.
Regarding `OC1OC[C@@H](O)[C@H](O)[C@H]1O` (stereo partly drawn) [D-xylose], on BcGalB [2] (highest concentration 100 mM, at least 66% retained), the “retained activity at the highest concentration” value is given as > 66%.
For the compound “B. coagulans MA-13 β-galactosidase expressed in E. coli (BcGalB) (enzyme)”, the stoichiometry N (in general, the number of molecules, sites or subunits per partner or assembly) in assay [3] is 6.
For `OC1OC[C@@H](O)[C@@H](O)[C@@H]1O` (stereo partly drawn) [D-arabinose], the “retained activity at the highest concentration” value at BcGalB [2] is > 66%.

Source of the values: paper PMC7977261, “Prebiotic properties of Bacillus coagulans MA-13: production of galactoside hydrolyzing enzymes and characterization of the transglycosylation properties of a GH42 β-galactosidase” (Microbial Cell Factories, 2021).
